According to patent publication EP1439394A1, “Method and apparatus for etablishing ADME profiles in the early stage of develloppment of active substances” (priority 2002, dated 2004):

Experiments:
HSA = HSA (Homo sapiens, UniProt P02768); details: standard ligands immobilised on the array; protein not named, HSA per Example 2 / Abb. 2
Description: (§1) Wird SPR als Detektionsmethode eingesetzt, ist es vorteilhaft, zunächst eine Messung des Microarrays ohne Lösung (Luftmessung) durchzuführen und danach eine Messung des Microarrays mit der Pufferlösung durchzuführen, in der anschließend das ADME relevante Biomolekül gelöst wird (Puffermessung). Anschliessend wird die Pufferlösung gegen eine Lösung des ADME relevanten Biomoleküls in demselben Puffer ausgetauscht und nochmals gemessen (Proteinmessung). Die Puffermessungen und die Proteinmessungen werden mittels der Luftmessung normiert und anschließend wird die Differenz zwischen den beiden Minima der Proteinmessung und der Puffermessung ermittelt.
(§2) Die so ermittelte Verschiebung (in nm) zwischen den beiden (ggf. normierten) Messungen ist ein Maß für die Bindungsstärke zwischen den immobilisierten Liganden und dem ADME relevanten Biomolekül (s. Beispiel 1).
Anschließend wurde der Chip je dreifach in 1. Methanol/1%TFA, 2. H2O/0,1% TFA und 3. H2O/0,02M HOAc gewaschen sowie unter Stickstoffstrom getrocknet.
Alle Verbindungen weisen eine Carboxy-Funktionalität auf, die mit einem Amin umgesetzt wurden, das endständig eine Thiolgruppe zur Anbindung an die Maleimid-Kopfgruppe des Ankers trägt.
Die Wirkstoffvorstufen, die so auf die Oberfläche gebracht werden, sind in einer 40 µM Lösung aus 0,2 M Phosphatpuffer (Pi), 5 mM EDTA und 20% (v/v) EG, pH 7.0, gelöst. Das Pinning Tool setzt ca. 10 nl pro Spot ab, so daß in jedem Spot ein hoher Überschuß des Wirkstoffvorstufen-Tag Konjugates gegenüber der oberflächengebundenen Maleimid-Gruppe gewährleistet wird und somit eine vollständige Belegung der Maleimid-Gruppen erreicht werden kann. In den freien Bereichen wurden die Maleimid-Gruppen anschließend durch Inkubation des Chips in 0,2 M Pi, pH 7.0, 10mM Mesh für 30 min abgesättigt. Danach wurde je dreimal mit 1. H2O/0,02M HOAc, 2. MeOH/H2O und 3. 2-Propanol gewaschen sowie unter Stickstoffstrom getrocknet.
Die Verschiebung der Wellenlänge wurde nach 120 min aufgezeichnet. Durch die eindeutige Zuordnung der (x,y)-Koordinate zu einer bestimmten Verbindung ist diese eindeutig identifizierbar. Wirkstoffvorstufen mit hohen Verschiebungswerten sind kritisch im Hinblick auf die weitere Wirkstoffentwicklung.
Das Festphasenscreening wurde durchgeführt wie in Beispiel 1 beschrieben.

CYP3A4 = CYP3A4 (Homo sapiens, UniProt P08684); details: standard ligands immobilised on the array; CYP3A4 per Example 3 / Abb. 3
Sequence of CYP3A4 (P08684 whole entry): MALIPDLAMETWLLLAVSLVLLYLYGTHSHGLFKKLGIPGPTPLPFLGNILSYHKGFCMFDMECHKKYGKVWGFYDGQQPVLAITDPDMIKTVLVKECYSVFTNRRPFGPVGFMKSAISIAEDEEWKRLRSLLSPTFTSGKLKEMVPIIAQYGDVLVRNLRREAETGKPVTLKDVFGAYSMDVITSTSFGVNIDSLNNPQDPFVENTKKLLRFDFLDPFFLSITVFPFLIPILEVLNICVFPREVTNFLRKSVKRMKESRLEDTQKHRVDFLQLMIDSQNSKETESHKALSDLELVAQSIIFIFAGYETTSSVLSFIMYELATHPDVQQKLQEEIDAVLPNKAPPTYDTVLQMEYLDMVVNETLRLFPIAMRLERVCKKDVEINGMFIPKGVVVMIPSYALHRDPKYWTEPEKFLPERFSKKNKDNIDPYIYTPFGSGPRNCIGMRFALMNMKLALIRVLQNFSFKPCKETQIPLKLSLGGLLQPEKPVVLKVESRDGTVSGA
Description: as §1, §2
Die Verschiebung der Wellenlänge wurde nach 120 min aufgezeichnet. Durch die eindeutige Zuordnung der (x,y)-Koordinate zu einer bestimmten Verbindung ist diese eindeutig identifizierbar.
3 gezeigten Standardliganden und deren Festphasenscreening gegen CYP3A4 eine Klassifizierung in sehr schwach (<1,6 nm), schwach (1,6-3,2 nm), mittel (3,2-4,8 nm), stark (4,8-6,4 nm) und sehr stark (>6,4 nm) durchgeführt. Anhand der bekannten Metabolismuseigenschaften der Standardliganden ist eine Zuordnung dieser ADME Eigenschaft für nicht bekannte Wirkstoffvorstufen möglich.

Sequence of HSA (P02768 25-609): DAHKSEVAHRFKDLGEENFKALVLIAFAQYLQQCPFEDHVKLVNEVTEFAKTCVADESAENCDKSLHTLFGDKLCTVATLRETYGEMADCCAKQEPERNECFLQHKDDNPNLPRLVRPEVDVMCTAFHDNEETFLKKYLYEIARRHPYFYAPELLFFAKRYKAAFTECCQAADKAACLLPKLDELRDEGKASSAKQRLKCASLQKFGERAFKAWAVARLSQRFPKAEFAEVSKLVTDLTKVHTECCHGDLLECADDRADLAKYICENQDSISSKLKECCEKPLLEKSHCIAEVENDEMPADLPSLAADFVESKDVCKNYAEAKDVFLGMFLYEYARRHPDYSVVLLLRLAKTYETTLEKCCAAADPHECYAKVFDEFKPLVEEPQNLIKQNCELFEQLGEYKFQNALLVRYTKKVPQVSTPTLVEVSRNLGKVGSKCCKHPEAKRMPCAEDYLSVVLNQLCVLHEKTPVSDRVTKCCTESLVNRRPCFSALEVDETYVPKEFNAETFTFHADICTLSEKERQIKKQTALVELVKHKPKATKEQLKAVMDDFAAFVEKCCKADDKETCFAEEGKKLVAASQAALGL

## C=C[C@H]1C[N@@]2CC[C@H]1C[C@@H]2[C@@H](O)c1ccnc2ccc(OC)cc12 [Chinidin]
HSA
  Klassifizierung der Standardliganden für die Bestimmung von Distributionsparametern: schwach (schwach (0,7-1,4 nm))

## C=C[C@H]1C[N@@]2CC[C@H]1C[C@H]2[C@H](O)c1ccnc2ccc(OC)cc12 [Chinin]
HSA
  Klassifizierung der Standardliganden für die Bestimmung von Distributionsparametern: schwach (schwach (0,7-1,4 nm))

## CNCCCN1c2ccccc2CCc2ccccc21 [Desimpramin]
HSA
  Klassifizierung der Standardliganden für die Bestimmung von Distributionsparametern: mittel (mittel (1,4-2,1 nm))
CYP3A4
  Klassifizierung der Standardliganden für die Bestimmung von Metabolismusparametern: schwach (schwach (1,6-3,2 nm))

## CNCCC=C1c2ccccc2CCc2ccccc21 [Nortriptylin]
HSA
  Klassifizierung der Standardliganden für die Bestimmung von Distributionsparametern: stark (stark (2,1-2,8 nm))
CYP3A4
  Klassifizierung der Standardliganden für die Bestimmung von Metabolismusparametern: schwach (schwach (1,6-3,2 nm))

## CC(=O)[C@H]1CC[C@H]2[C@@H]3CCC4=CC(=O)CC[C@]4(C)[C@H]3CC[C@]12C [Progesteron]
CYP3A4
  Klassifizierung der Standardliganden für die Bestimmung von Metabolismusparametern: sehr stark (sehr stark (>6,4 nm))
